Experimental data published in ChEMBL document CHEMBL5365438, “2-Substituted 1,5-benzothiazepine-based HDAC inhibitors exert anticancer activities on human solid and acute myeloid leukemia cell lines” (Bioorg Med Chem, 2023).
Calls of active or inactive are those of the source. The calls are words filed in the database; no cut-off is given here.

Assays:
HCT-116 [1] = assay: Cytotoxicity against human HCT-116 cells assessed as cell death at 5 uM incubated for 24 hrs by PI staining based FACS analysis relative to control; format: functional
[2] = molecular target: T1, Histone deacetylase (Homo sapiens) (UniProt Q13547+O15379+Q9UBN7+Q92769+Q9UQL6+Q8WUI4+Q9BY41+Q96DB2+P56524+Q9UKV0+Q969S8); assay: Inhibition of HDAC in human U-937 cells assessed as upregulation of acetyl alpha-tubulin level at 5 uM incubated for 24 hrs by immunoblotting analysis; format: cell-based
[3] = molecular target: T1, Histone deacetylase (Homo sapiens); assay: Inhibition of HDAC in human U-937 cells assessed as upregulation of histone H3 acetylation at lysine 14 residue at 5 uM incubated for 24 hrs by immunoblotting analysis; format: cell-based
HCT-116 [4] = assay: Induction of cell cycle arrest in human HCT-116 assessed as accumulation of cells in G2/M phase at 1 to 5 uM incubated for 24 hrs by FACS analysis relative to SAHA; format: functional; conditions: dose 1-5 µM
[5] = molecular target: T1, Histone deacetylase (Homo sapiens); assay: Inhibition of HDAC in human HCT-116 cells assessed as upregulation of acetyl alpha-tubulin level at 1 to 5 uM incubated for 24 hrs by immunoblotting analysis; format: cell-based; conditions: dose 1-5 µM
U-937 [6] = assay: Induction of apoptosis in human U-937 cells assessed as increased p21 protein expression level at 1 to 5 uM incubated for 24 hrs by immunoblotting analysis; format: functional, cell-based; conditions: dose 1-5 µM
Histone deacetylase = format: subcellular, Homo sapiens, Nucleus; conditions: hela
Description: Inhibition of HDAC in human HeLa cell nuclear extract using Kac fluorogenic peptide as substrate containing residues 379-382 of p53 by fluorescence assay

HCT-116 [7] = assay: Induction of apoptosis in human HCT-116 cells assessed as increased p21 protein expression level at 1 to 5 uM incubated for 24 hrs by immunoblotting analysis; format: functional, cell-based; conditions: dose 1-5 µM
U-937 [8] = assay: Induction of cell cycle arrest in human U-937 assessed as decrease accumulation of cells in G1 phase at 5 uM incubated for 24 hrs by FACS analysis; format: functional, cell-based
U-937 [9] = assay: Induction of cell cycle arrest in human U-937 assessed as increase accumulation of cells in G2/M phase at 1 to 5 uM incubated for 24 hrs by FACS analysis; format: functional, cell-based; conditions: dose 1-5 µM
HCT-116 [10] = assay: Cytotoxicity against human HCT-116 cells assessed as reduction in cell death at 1 uM incubated for 24 hrs by PI staining based FACS analysis; format: functional
U-937 [11] = assay: Cytotoxicity against human U-937 cells assessed as cell death at 5 uM incubated for 24 hrs by PI staining based FACS analysis relative to control; format: functional
U-937 [12] = assay: Induction of cell cycle arrest in human U-937 assessed as reduced accumulation of cells in S phase at 1 uM incubated for 24 hrs by FACS analysis; format: functional, cell-based
[13] = molecular target: T2, Protein deacetylase HDAC6 (Homo sapiens, UniProt Q9UBN7); assay: Inhibition of HDAC6 (unknown origin) using fluorogenic peptide as the substrate containing residues 379-382 of p53at 10 uM pre-incubated for 15 mins followed by substrate addition incubated for 30 mins by multimode plate reader
T2 sequence (Q9UBN7 whole entry): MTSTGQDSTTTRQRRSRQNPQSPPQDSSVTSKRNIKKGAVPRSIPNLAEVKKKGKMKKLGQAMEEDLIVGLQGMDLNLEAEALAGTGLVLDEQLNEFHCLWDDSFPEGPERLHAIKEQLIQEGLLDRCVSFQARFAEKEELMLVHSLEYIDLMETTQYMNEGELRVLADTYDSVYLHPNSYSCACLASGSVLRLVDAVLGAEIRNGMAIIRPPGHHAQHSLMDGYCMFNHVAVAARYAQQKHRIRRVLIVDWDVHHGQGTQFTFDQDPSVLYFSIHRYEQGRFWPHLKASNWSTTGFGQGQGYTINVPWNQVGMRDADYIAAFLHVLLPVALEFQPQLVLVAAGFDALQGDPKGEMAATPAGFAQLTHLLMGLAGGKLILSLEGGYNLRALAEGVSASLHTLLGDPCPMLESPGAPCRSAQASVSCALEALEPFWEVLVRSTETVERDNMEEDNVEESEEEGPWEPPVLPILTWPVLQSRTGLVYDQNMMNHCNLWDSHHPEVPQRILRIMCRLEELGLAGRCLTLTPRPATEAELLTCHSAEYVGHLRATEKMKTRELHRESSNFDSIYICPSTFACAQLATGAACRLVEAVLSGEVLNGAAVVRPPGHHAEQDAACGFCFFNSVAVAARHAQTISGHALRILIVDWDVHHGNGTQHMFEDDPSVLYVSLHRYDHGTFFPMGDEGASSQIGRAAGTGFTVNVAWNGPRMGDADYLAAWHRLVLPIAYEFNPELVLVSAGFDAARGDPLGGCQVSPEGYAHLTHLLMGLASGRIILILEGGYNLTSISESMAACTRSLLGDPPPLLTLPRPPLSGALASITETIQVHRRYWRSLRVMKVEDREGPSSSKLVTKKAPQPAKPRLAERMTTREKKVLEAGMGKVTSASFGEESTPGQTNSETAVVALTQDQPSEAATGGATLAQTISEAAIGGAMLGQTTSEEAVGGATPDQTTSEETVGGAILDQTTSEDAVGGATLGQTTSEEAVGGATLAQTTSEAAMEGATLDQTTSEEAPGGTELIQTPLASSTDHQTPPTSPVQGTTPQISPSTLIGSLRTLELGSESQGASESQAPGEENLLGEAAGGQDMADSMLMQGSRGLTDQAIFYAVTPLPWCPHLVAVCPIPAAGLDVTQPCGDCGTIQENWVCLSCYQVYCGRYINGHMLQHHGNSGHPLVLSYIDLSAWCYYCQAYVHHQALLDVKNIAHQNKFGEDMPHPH

[14] = molecular target: Histone deacetylase 4 (Homo sapiens) (UniProt P56524); assay: Inhibition of HDAC4 (unknown origin) at 10 uM using fluorogenic peptide as substrate pre-incubated for 15 mins followed by substrate addition incubated for 30 mins by fluorescence assay; conditions: time 45.0 min
Sequence of Histone deacetylase 4 (Homo sapiens) (P56524 whole entry): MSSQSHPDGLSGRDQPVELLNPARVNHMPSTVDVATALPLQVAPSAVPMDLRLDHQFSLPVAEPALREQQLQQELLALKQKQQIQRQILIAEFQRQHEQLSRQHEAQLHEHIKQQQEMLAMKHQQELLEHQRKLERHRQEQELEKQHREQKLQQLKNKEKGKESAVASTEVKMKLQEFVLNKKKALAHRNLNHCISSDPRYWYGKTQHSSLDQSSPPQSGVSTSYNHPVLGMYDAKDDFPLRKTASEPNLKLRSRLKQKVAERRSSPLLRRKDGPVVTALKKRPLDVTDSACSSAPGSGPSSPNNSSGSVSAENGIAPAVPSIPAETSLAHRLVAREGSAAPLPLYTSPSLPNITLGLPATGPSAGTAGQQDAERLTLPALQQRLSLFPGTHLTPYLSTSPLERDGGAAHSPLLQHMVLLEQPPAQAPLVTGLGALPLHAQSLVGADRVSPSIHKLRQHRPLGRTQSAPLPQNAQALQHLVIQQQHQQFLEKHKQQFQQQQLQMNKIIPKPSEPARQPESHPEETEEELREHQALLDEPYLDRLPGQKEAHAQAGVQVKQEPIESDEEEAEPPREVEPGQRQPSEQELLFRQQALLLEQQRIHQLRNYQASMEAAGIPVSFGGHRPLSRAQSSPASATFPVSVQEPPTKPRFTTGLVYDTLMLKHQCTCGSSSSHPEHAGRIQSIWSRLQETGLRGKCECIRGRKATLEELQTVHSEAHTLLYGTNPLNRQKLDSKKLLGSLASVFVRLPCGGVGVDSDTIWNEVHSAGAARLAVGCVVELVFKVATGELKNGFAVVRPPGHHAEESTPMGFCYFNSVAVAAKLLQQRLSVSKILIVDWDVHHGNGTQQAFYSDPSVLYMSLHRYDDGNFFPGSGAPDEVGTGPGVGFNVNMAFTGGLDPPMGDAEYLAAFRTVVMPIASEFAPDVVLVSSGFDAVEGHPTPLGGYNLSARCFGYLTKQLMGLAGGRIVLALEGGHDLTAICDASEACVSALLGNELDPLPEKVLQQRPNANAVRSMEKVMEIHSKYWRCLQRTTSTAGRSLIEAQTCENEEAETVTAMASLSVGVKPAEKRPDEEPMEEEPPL

U-937 [15] = assay: Cytotoxicity against human U-937 cells assessed as cell death at 1 uM incubated for 24 hrs by PI staining based FACS analysis relative to control; format: functional
[16] = molecular target: T3, Histone deacetylase 8 (Homo sapiens) (UniProt Q9BY41); assay: Inhibition of HDAC8 (unknown origin) at 10 uM using fluorogenic peptide as substrate pre-incubated for 15 mins followed by substrate addition incubated for 30 mins by fluorescence assay; conditions: time 45.0 min
T3 sequence (whole entry): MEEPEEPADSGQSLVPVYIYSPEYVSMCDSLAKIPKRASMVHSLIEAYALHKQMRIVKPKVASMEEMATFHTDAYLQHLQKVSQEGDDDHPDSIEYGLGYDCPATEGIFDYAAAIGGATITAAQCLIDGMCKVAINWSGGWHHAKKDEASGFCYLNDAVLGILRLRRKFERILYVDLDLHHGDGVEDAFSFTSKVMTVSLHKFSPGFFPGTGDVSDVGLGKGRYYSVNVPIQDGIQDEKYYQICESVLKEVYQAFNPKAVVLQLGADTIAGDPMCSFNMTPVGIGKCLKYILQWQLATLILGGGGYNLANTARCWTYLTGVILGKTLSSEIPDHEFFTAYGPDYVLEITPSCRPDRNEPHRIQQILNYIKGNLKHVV

[17] = molecular target: T4, Protein deacetylase HDAC6 (Homo sapiens) (UniProt Q9UBN7); assay: Inhibition of HDAC6 (unknown origin) at 10 uM using fluorogenic peptide as substrate pre-incubated for 15 mins followed by substrate addition incubated for 30 mins by fluorescence assay; conditions: time 45.0 min
T4 sequence (whole entry): T2 sequence (Q9UBN7 whole entry)

[18] = molecular target: Histone deacetylase 2 (Homo sapiens) (UniProt Q92769); assay: Inhibition of HDAC2 (unknown origin) at 10 uM using fluorogenic peptide as substrate pre-incubated for 15 mins followed by substrate addition incubated for 30 mins by fluorescence assay; conditions: time 45.0 min
Sequence of Histone deacetylase 2 (Homo sapiens) (Q92769 whole entry): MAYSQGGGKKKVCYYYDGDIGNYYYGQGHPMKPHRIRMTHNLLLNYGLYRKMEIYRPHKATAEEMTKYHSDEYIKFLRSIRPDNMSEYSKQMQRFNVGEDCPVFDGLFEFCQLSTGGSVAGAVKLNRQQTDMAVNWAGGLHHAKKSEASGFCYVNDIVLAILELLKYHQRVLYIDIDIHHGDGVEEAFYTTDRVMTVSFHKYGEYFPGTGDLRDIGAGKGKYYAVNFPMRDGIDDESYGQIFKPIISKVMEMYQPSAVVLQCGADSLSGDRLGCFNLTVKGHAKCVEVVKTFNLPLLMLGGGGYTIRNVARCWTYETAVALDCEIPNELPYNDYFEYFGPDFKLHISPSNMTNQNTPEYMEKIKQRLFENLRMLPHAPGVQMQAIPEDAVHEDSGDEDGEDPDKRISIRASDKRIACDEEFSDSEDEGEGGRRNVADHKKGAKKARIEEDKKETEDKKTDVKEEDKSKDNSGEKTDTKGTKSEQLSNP

Histone deacetylase 1 [19] = molecular target: T5, Histone deacetylase 1 (Homo sapiens, UniProt Q13547); assay: Inhibition of HDAC1 (unknown origin) at 10 uM using fluorogenic peptide as substrate pre-incubated for 15 mins followed by substrate addition incubated for 30 mins by fluorescence assay relative to control; conditions: time 45.0 min
T5 sequence (Q13547 whole entry): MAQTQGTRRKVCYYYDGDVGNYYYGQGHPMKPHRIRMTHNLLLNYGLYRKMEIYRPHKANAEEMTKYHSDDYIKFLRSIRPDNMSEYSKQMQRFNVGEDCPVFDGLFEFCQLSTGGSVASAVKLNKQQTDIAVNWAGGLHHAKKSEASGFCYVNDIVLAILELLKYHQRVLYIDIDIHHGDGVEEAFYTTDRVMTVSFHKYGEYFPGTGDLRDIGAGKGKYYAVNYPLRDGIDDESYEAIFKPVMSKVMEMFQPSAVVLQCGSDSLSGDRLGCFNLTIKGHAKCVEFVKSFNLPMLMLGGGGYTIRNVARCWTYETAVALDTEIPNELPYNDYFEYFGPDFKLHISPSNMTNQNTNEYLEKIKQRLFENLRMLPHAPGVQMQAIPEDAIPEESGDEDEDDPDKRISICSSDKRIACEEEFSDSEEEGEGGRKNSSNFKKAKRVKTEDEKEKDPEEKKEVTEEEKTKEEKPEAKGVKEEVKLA

[20] = molecular target: T1, Histone deacetylase (Homo sapiens); assay: Inhibition of HDAC in human HCT-116 cells assessed as upregulation of histone H3 acetylation at lysine 14 residue at 1 uM incubated for 24 hrs by immunoblotting analysis; format: cell-based
[21] = molecular target: Histone deacetylase 3 (Homo sapiens) (UniProt O15379); assay: Inhibition of HDAC3 (unknown origin) at 10 uM using fluorogenic peptide as substrate pre-incubated for 15 mins followed by substrate addition incubated for 30 mins by fluorescence assay; conditions: time 45.0 min
Sequence of Histone deacetylase 3 (Homo sapiens) (O15379 whole entry, the tested form may be a part): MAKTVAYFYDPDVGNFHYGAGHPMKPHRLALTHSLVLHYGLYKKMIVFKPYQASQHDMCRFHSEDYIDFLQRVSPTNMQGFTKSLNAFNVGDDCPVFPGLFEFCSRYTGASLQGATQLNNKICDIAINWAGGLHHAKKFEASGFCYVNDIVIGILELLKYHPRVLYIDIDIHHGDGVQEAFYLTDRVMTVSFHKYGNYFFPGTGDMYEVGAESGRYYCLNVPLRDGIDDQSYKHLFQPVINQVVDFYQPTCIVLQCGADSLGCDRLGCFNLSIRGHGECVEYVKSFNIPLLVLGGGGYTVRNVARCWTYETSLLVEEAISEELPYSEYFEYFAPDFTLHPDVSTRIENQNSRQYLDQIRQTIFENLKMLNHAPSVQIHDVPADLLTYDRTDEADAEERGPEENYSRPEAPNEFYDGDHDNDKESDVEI

Histone deacetylase 1 [22] = molecular target: T5, Histone deacetylase 1; assay: Inhibition of HDAC1 (unknown origin) using fluorogenic peptide as the substrate containing residues 379-382 of p53 pre-incubated for 15 mins followed by substrate addition incubated for 30 mins by multimode plate reader
[23] = molecular target: T1, Histone deacetylase (Homo sapiens); assay: Inhibition of HDAC in human U-937 cells assessed as upregulation of histone H3 acetylation at lysine 14 residue at 1 uM incubated for 24 hrs by immunoblotting analysis; format: cell-based
U-937 [24] = assay: Induction of cell cycle arrest in human U-937 assessed as decrease accumulation of cells in S phase at 5 uM incubated for 24 hrs by FACS analysis; format: functional, cell-based
HCT-116 [25] = assay: Induction of cell cycle arrest in human HCT-116 assessed as accumulation of cells in G2/M phase at 5 uM incubated for 24 hrs by FACS analysis; format: functional, cell-based
U-937 [26] = assay: Induction of cell cycle arrest in human U-937 assessed as increase accumulation of cells in G2/M phase at 5 uM incubated for 24 hrs by FACS analysis; format: functional, cell-based

With `O=C(CCCCCN1C(=O)CC(c2ccc(Cl)c(Cl)c2)Sc2ccccc21)NO` (racemic) the Activity (HCT-116 [1]) was 22%, the Activity [2] was “Active” and the Activity [3] was “Active”. The Activity (HCT-116 [4]) was “Active”, the Activity [5] was “Active” and the Activity (U-937 [6]) was “Active”. The IC50 (Histone deacetylase) was 229.2 nM, the Activity (HCT-116 [7]) was “Active” and the Activity (U-937 [8]) was “Active”. The Activity (U-937 [9]) was “Active”, the Activity (HCT-116 [10]) was “Active” and the Activity (U-937 [11]) was ~12%. The Activity (U-937 [12]) was “Active”.
For `O=C(CCCCCN1C(=O)CC(c2cccc(Br)c2)Sc2ccccc21)NO` (racemic), the Activity (HCT-116 [1]) was 22%, the Activity [2] was “Active” and the Activity [3] was “Active”. For the same compound, the Activity (HCT-116 [4]) was “Active”, the Activity [5] was “Active” and the Activity (U-937 [6]) was “Active”. The IC50 (Histone deacetylase) was 293.3 nM, the Activity (HCT-116 [7]) was “Active” and the Activity (U-937 [8]) was “Active”. The Activity (U-937 [9]) was “Active”, the Activity (HCT-116 [10]) was “Active” and the Activity (U-937 [11]) was ~12%. The Activity (U-937 [12]) was “Active”.
In the case of `O=C(CCCCCN1C(=O)CC(c2ccccc2)S(=O)(=O)c2ccccc21)NO` (racemic), the Activity [2] is reported as “Active”, the Activity [3] is reported as “Active” and the IC50 [13] is reported as 23.2 nM. The Activity (HCT-116 [4]) was ~75%, the Activity [5] was “Active” and the Activity (U-937 [6]) was “Active”. It also gave an IC50 (Histone deacetylase) of 38.6 nM, an inhibition [14] of 51.4% and an Activity (U-937 [15]) of 12%. The inhibition [16] was 87.3%, the Activity (HCT-116 [7]) was “Active” and the inhibition [17] was 98.8%. The inhibition [18] was 100%, the inhibition (Histone deacetylase 1 [19]) was 99.1% and the Activity [20] was “Active”. For the same compound, the inhibition [21] was 99.3%, the IC50 (Histone deacetylase 1 [22]) was 115 nM and the Activity (U-937 [8]) was “Active”. The Activity (U-937 [9]) was “Active”, the Activity [23] was “Active” and the Activity (U-937 [11]) was ~12%. The Activity (U-937 [12]) was “Active”.
With `O=C(CCCCCCC(=O)Nc1ccccc1)NO` [VORINOSTAT] the Activity (U-937 [24]) was “Active”, the Activity (HCT-116 [25]) was “Active” and the Activity (U-937 [26]) was “Active”. The Activity (U-937 [8]) was “Active” and the Activity (U-937 [11]) was ~10%.
